Source: paper PMC5218480 (PLoS ONE, 2017)

Test system: MV-4-11 cells
Assay: Gene expression microarray analysis (Affymetrix PrimeView) and GSEA
Type: cell-based, human
Set-up: RFU PODN (11730768_x_at) / Fold change /veh PODN (11730768_x_at) / RFU LINC00158 (11744669_a_at) / Fold change /veh LINC00158 (11744669_a_at) / RFU DUSP10 (11751237_a_at) / Fold change /veh DUSP10 (11751237_a_at) / RFU ID3 (11757404_x_at) / Fold change /veh ID3 (11757404_x_at) / RFU PLEKHG5 (11737974_s_at) / Fold change /veh PLEKHG5 (11737974_s_at) / RFU LRRC4B (11730491_at) / Fold change /veh LRRC4B (11730491_at) / RFU GIMAP4 (11747438_a_at) / Fold change /veh GIMAP4 (11747438_a_at) / RFU KRT8 (11758183_x_at) / Fold change /veh KRT8 (11758183_x_at) / RFU CNN1 (11734310_a_at) / Fold change /veh CNN1 (11734310_a_at) / RFU VPS37D (11726825_at) / Fold change /veh VPS37D (11726825_at) / RFU C10orf10 (11716522_x_at) / Fold change /veh C10orf10 (11716522_x_at) / RFU KIR2DL2 /// KIR2DL4 /// KIR2DL5A /// KIR2DL5B /// KIR2DS1 /// KIR2DS2 /// KIR2DS3 /// KIR2DS4 /// KIR3DL3 /// KIR3DL3 /// KIR3DS1 (11738374_at) / Fold change /veh KIR2DL2 /// KIR2DL4 /// KIR2DL5A /// KIR2DL5B /// KIR2DS1 /// KIR2DS2 /// KIR2DS3 /// KIR2DS4 /// KIR3DL3 /// KIR3DL3 /// KIR3DS1 (11738374_at) / RFU C1QL1 (11718748_at) / Fold change /veh C1QL1 (11718748_at) / RFU TMPRSS4 (11747572_a_at) / Fold change /veh TMPRSS4 (11747572_a_at) / RFU HAMP (11756126_x_at) / Fold change /veh HAMP (11756126_x_at) / RFU RNFT2 (11725882_a_at) / Fold change /veh RNFT2 (11725882_a_at) / RFU NR4A2 (11747474_a_at) / Fold change /veh NR4A2 (11747474_a_at) / RFU ABCC12 (11746883_a_at) / Fold change /veh ABCC12 (11746883_a_at) / RFU TMEM136 (11760407_x_at) / Fold change /veh TMEM136 (11760407_x_at) / RFU CLDN22 /// WWC2 (11732394_at) / Fold change /veh CLDN22 /// WWC2 (11732394_at) / RFU HLA-DPB1 (11760878_x_at) / Fold change /veh HLA-DPB1 (11760878_x_at) / RFU SPINT1 (11716480_a_at) / Fold change /veh SPINT1 (11716480_a_at) / RFU GAP43 (11754022_s_at) / Fold change /veh GAP43 (11754022_s_at) / RFU A4GNT (11735810_at) / Fold change /veh A4GNT (11735810_at) / RFU PRB3 (11715151_x_at) / Fold change /veh PRB3 (11715151_x_at) / RFU TUBB4B (11761932_at) / Fold change /veh TUBB4B (11761932_at) / RFU CAPN14 (11732068_a_at) / Fold change /veh CAPN14 (11732068_a_at) / RFU TMCC2 (11721928_a_at) / Fold change /veh TMCC2 (11721928_a_at) / RFU IRGQ (11745062_a_at) / Fold change /veh IRGQ (11745062_a_at) / RFU FAM174B (11720279_a_at) / Fold change /veh FAM174B (11720279_a_at) / RFU TMPRSS4 (11748680_a_at) / Fold change /veh TMPRSS4 (11748680_a_at) / RFU FAM212B (11763350_a_at) / Fold change /veh FAM212B (11763350_a_at) / RFU PLEKHG5 (11743358_a_at) / Fold change /veh PLEKHG5 (11743358_a_at) / RFU ZSCAN30 (11745921_a_at) / Fold change /veh ZSCAN30 (11745921_a_at) / RFU CMKLR1 (11741424_a_at) / Fold change /veh CMKLR1 (11741424_a_at) / RFU LOC101060620 /// MAPK8IP1 (11723275_at) / Fold change /veh LOC101060620 /// MAPK8IP1 (11723275_at) / RFU SPTSSB (11747773_x_at) / Fold change /veh SPTSSB (11747773_x_at) / RFU PRSS12 (11739890_at) / Fold change /veh PRSS12 (11739890_at) / RFU BIN1 (11741810_x_at) / Fold change /veh BIN1 (11741810_x_at) / RFU WNT11 (11732464_a_at) / Fold change /veh WNT11 (11732464_a_at) / RFU C10orf10 (11716521_a_at) / Fold change /veh C10orf10 (11716521_a_at) / RFU C5orf56 (11738089_at) / Fold change /veh C5orf56 (11738089_at) / RFU CYB561 (11721691_x_at) / Fold change /veh CYB561 (11721691_x_at) / RFU ANKRD19P (11752326_a_at) / Fold change /veh ANKRD19P (11752326_a_at) / RFU OR2T12 /// OR2T33 /// OR2T8 (11738714_s_at) / Fold change /veh OR2T12 /// OR2T33 /// OR2T8 (11738714_s_at) / RFU VCAN (11748164_a_at) / Fold change /veh VCAN (11748164_a_at) / RFU JSRP1 (11732532_at) / Fold change /veh JSRP1 (11732532_at) / RFU KRTAP10-11 (11738290_x_at) / Fold change /veh KRTAP10-11 (11738290_x_at) / RFU MYO3A (11730013_a_at) / Fold change /veh MYO3A (11730013_a_at) / RFU EBF3 (11725865_a_at) / Fold change /veh EBF3 (11725865_a_at) / RFU CAMK2N1 (11719241_x_at) / Fold change /veh CAMK2N1 (11719241_x_at) / RFU C5orf56 (11738088_a_at) / Fold change /veh C5orf56 (11738088_a_at) / RFU OLFML3 (11715873_a_at) / Fold change /veh OLFML3 (11715873_a_at) / RFU LOC100653217 /// NTM (11731650_a_at) / Fold change /veh LOC100653217 /// NTM (11731650_a_at) / RFU MAPK11 (11762145_a_at) / Fold change /veh MAPK11 (11762145_a_at) / RFU FIZ1 (11724087_x_at) / Fold change /veh FIZ1 (11724087_x_at) / RFU OASL (11726364_x_at) / Fold change /veh OASL (11726364_x_at) / RFU SOX15 (11748057_x_at) / Fold change /veh SOX15 (11748057_x_at) / RFU CD79A (11719716_a_at) / Fold change /veh CD79A (11719716_a_at) / RFU HIST1H1D (11736915_at) / Fold change /veh HIST1H1D (11736915_at) / RFU CASKIN2 (11723855_a_at) / Fold change /veh CASKIN2 (11723855_a_at) / RFU LOC730098 (11760151_x_at) / Fold change /veh LOC730098 (11760151_x_at) / RFU OR4N2 (11742367_at) / Fold change /veh OR4N2 (11742367_at) / RFU PRRT2 (11749266_a_at) / Fold change /veh PRRT2 (11749266_a_at) / RFU SNX32 (11753110_a_at) / Fold change /veh SNX32 (11753110_a_at) / RFU CDHR5 (11726645_a_at) / Fold change /veh CDHR5 (11726645_a_at) / RFU RCAN1 (11760418_a_at) / Fold change /veh RCAN1 (11760418_a_at) / RFU FAM167A (11723789_a_at) / Fold change /veh FAM167A (11723789_a_at) / RFU FAM26E (11764081_at) / Fold change /veh FAM26E (11764081_at) / RFU ISYNA1 (11749810_s_at) / Fold change /veh ISYNA1 (11749810_s_at) / RFU ACY1 (11761880_at) / Fold change /veh ACY1 (11761880_at) / RFU 11764098_at / Fold change /veh 11764098_at / RFU SAMD14 (11745864_x_at) / Fold change /veh SAMD14 (11745864_x_at) / RFU NPB (11741838_a_at) / Fold change /veh NPB (11741838_a_at) / RFU TMPRSS6 (11731388_a_at) / Fold change /veh TMPRSS6 (11731388_a_at) / RFU KRTAP10-2 (11738614_at) / Fold change /veh KRTAP10-2 (11738614_at) / RFU ARHGAP8 /// PRR5-ARHGAP8 (11727945_x_at) / Fold change /veh ARHGAP8 /// PRR5-ARHGAP8 (11727945_x_at) / RFU KRTAP5-7 /// NADSYN1 (11734609_at) / Fold change /veh KRTAP5-7 /// NADSYN1 (11734609_at) / RFU RASL12 (11751679_a_at) / Fold change /veh RASL12 (11751679_a_at) / RFU CDKN2B (11736163_a_at) / Fold change /veh CDKN2B (11736163_a_at) / RFU PRF1 (11729649_at) / Fold change /veh PRF1 (11729649_at) / RFU, ZNF638 /// ZNF638-IT1 / Fold change vs veh, ZNF638 /// ZNF638-IT1 / RFU, PANK3 / Fold change vs veh, PANK3 / RFU, SH3YL1 / Fold change vs veh, SH3YL1 / RFU, ZEB2 / Fold change vs veh, ZEB2 / RFU, NRIP1 / Fold change vs veh, NRIP1 / RFU, PTTG1IP / Fold change vs veh, PTTG1IP / RFU, CAPN2 / Fold change vs veh, CAPN2 / RFU, MED14 / Fold change vs veh, MED14 / RFU, SNORA58 / Fold change vs veh, SNORA58 / RFU, C1orf63 / Fold change vs veh, C1orf63 / RFU, LRRFIP1 / Fold change vs veh, LRRFIP1 / RFU, NDUFAF7 / Fold change vs veh, NDUFAF7 / RFU, SLC12A2 / Fold change vs veh, SLC12A2 / RFU, IBTK / Fold change vs veh, IBTK / RFU, ESF1 / Fold change vs veh, ESF1 / Fold change vs veh, TMEM50B / RFU, TAOK1 / Fold change vs veh, TAOK1 / RFU, ACBD3 / Fold change vs veh, ACBD3 / RFU, TMA16 / Fold change vs veh, TMA16 / RFU, RWDD3 / Fold change vs veh, RWDD3 / RFU, BCAT1 / Fold change vs veh, BCAT1 / RFU, EDEM3 / Fold change vs veh, EDEM3 / RFU, TMEM33 / Fold change vs veh, TMEM33 / RFU, WDR75 / Fold change vs veh, WDR75 / RFU, AHCTF1 / Fold change vs veh, AHCTF1 / RFU, TFRC / Fold change vs veh, TFRC / RFU, ZDHHC17 / Fold change vs veh, ZDHHC17 / RFU, NOM1 / Fold change vs veh, NOM1 / RFU, ARL8B / Fold change vs veh, ARL8B / RFU, ZBTB11 / Fold change vs veh, ZBTB11 / RFU, TAMM41 / Fold change vs veh, TAMM41 / RFU, KIAA1704 /// LOC100996395 / Fold change vs veh, KIAA1704 /// LOC100996395 / RFU, ING1 / Fold change vs veh, ING1 / RFU, TRMT61B / Fold change vs veh, TRMT61B / RFU, FUBP3 / Fold change vs veh, FUBP3 / RFU, TP53 / Fold change vs veh, TP53 / RFU, TNKS2 / Fold change vs veh, TNKS2 / RFU, ZFP14 / Fold change vs veh, ZFP14 / RFU, ACTR2 / Fold change vs veh, ACTR2 / RFU, PPP3R1 / Fold change vs veh, PPP3R1 / RFU, PIK3R1 / Fold change vs veh, PIK3R1 / RFU, HNRNPA1 / Fold change vs veh, HNRNPA1 / RFU, RNF170 / Fold change vs veh, RNF170 / RFU, ZNF28 / Fold change vs veh, ZNF28 / RFU, RNGTT / Fold change vs veh, RNGTT / RFU, OGT / Fold change vs veh, OGT / RFU, BRD1 / Fold change vs veh, BRD1 / RFU, MARS / Fold change vs veh, MARS / RFU, ZNF655 / Fold change vs veh, ZNF655 / RFU, FAHD1 / Fold change vs veh, FAHD1 / RFU, BDP1 / Fold change vs veh, BDP1 / RFU, LRRCC1 / Fold change vs veh, LRRCC1 / RFU, ARID1A / Fold change vs veh, ARID1A / RFU, ZNF146 / Fold change vs veh, ZNF146 / RFU, ZNF330 / Fold change vs veh, ZNF330 / RFU, GPN3 / Fold change vs veh, GPN3 / RFU, C9orf123 / Fold change vs veh, C9orf123 / RFU, N4BP2L2 / Fold change vs veh, N4BP2L2 / RFU, ARFIP1 / Fold change vs veh, ARFIP1 / RFU, FAM179B / Fold change vs veh, FAM179B / RFU, BCL10 / Fold change vs veh, BCL10 / RFU, UHRF1BP1L / Fold change vs veh, UHRF1BP1L / RFU, BET1 / Fold change vs veh, BET1 / RFU, CNOT2 / Fold change vs veh, CNOT2 / RFU, ZNF268 / Fold change vs veh, ZNF268 / Fold change vs veh, ZNF507 / RFU, DGCR2 / Fold change vs veh, DGCR2 / RFU, WDSUB1 / Fold change vs veh, WDSUB1 / Fold change vs veh, HSP90B1 /// MIR3652 / RFU, ADSS / Fold change vs veh, ADSS / RFU, GK / Fold change vs veh, GK / RFU, ZNF148 / Fold change vs veh, ZNF148 / RFU, TAF9 / Fold change vs veh, TAF9 / RFU, SLC1A5 / Fold change vs veh, SLC1A5 / RFU, SLMO2 / Fold change vs veh, SLMO2 / RFU, ABCC4 / Fold change vs veh, ABCC4 / RFU, LOC101060439 /// RAP1B / Fold change vs veh, LOC101060439 /// RAP1B / RFU, RFX7 / Fold change vs veh, RFX7 / RFU, GTPBP10 / Fold change vs veh, GTPBP10 / RFU, CNEP1R1 / Fold change vs veh, CNEP1R1 / RFU, BIVM-ERCC5 /// ERCC5 / Fold change vs veh, BIVM-ERCC5 /// ERCC5 / RFU, ILF3 / Fold change vs veh, ILF3 / RFU 11762660_at / Fold change /veh 11762660_at / RFU VCAN (11757783_s_at) / Fold change /veh VCAN (11757783_s_at) / RFU DDX43 (11728927_at) / Fold change /veh DDX43 (11728927_at) / RFU KRT8 (11758188_x_at) / Fold change /veh KRT8 (11758188_x_at) / RFU NKD1 (11759106_at) / Fold change /veh NKD1 (11759106_at) / RFU SRD5A1 (11742802_a_at) / Fold change /veh SRD5A1 (11742802_a_at) / RFU TPSAB1 /// TPSB2 (11721975_s_at) / Fold change /veh TPSAB1 /// TPSB2 (11721975_s_at) / RFU GSTM3 (11746129_a_at) / Fold change /veh GSTM3 (11746129_a_at) / RFU IL23R (11737362_x_at) / Fold change /veh IL23R (11737362_x_at) / RFU TMEM51 (11727254_a_at) / Fold change /veh TMEM51 (11727254_a_at) / RFU PIWIL2 (11732686_x_at) / Fold change /veh PIWIL2 (11732686_x_at) / RFU ORM1 (11744905_x_at) / Fold change /veh ORM1 (11744905_x_at) / RFU CCDC152 (11743942_at) / Fold change /veh CCDC152 (11743942_at) / RFU ECM1 (11717891_a_at) / Fold change /veh ECM1 (11717891_a_at) / RFU IL23R (11748794_a_at) / Fold change /veh IL23R (11748794_a_at) / RFU TNFAIP8L3 (11732012_x_at) / Fold change /veh TNFAIP8L3 (11732012_x_at) / RFU MBOAT4 (11741988_at) / Fold change /veh MBOAT4 (11741988_at) / RFU 11764193_at / Fold change /veh 11764193_at / RFU TMEM53 (11763286_at) / Fold change /veh TMEM53 (11763286_at) / RFU MAGEB2 (11727129_at) / Fold change /veh MAGEB2 (11727129_at) / RFU TMEM200A (11744735_a_at) / Fold change /veh TMEM200A (11744735_a_at) / RFU CCDC152 (11751479_a_at) / Fold change /veh CCDC152 (11751479_a_at) / RFU FAM211A (11726209_a_at) / Fold change /veh FAM211A (11726209_a_at) / RFU RGS16 (11746705_a_at) / Fold change /veh RGS16 (11746705_a_at) / RFU VCAN (11755009_s_at) / Fold change /veh VCAN (11755009_s_at) / RFU RHOB (11743442_s_at) / Fold change /veh RHOB (11743442_s_at) / RFU RGS16 (11720943_a_at) / Fold change /veh RGS16 (11720943_a_at) / RFU RGS16 (11720944_at) / Fold change /veh RGS16 (11720944_at) / RFU, VPS4B / Fold change vs veh, VPS4B / RFU, CREB1 / Fold change vs veh, CREB1 / RFU, DNAJC13 / Fold change vs veh, DNAJC13 / RFU, GNAQ / Fold change vs veh, GNAQ / RFU, CDK5R1 / Fold change vs veh, CDK5R1 / RFU, ZRANB3 / Fold change vs veh, ZRANB3 / RFU, CUL4A / Fold change vs veh, CUL4A / RFU, CCNY / Fold change vs veh, CCNY / RFU, UFL1 / Fold change vs veh, UFL1 / RFU, COG3 / Fold change vs veh, COG3 / RFU, DIAPH2 / Fold change vs veh, DIAPH2 / RFU, SKA2 / Fold change vs veh, SKA2 / RFU, AFF3 / Fold change vs veh, AFF3 / RFU, LMF1 / Fold change vs veh, LMF1 / RFU, IPO11 / Fold change vs veh, IPO11 / RFU, DFFB / Fold change vs veh, DFFB / RFU, FOXP1 / Fold change vs veh, FOXP1 / RFU, CARD8 / Fold change vs veh, CARD8 / RFU, STRN3 / Fold change vs veh, STRN3 / RFU, ADK / Fold change vs veh, ADK / RFU, RASSF2 / Fold change vs veh, RASSF2 / RFU, WIPF1 / Fold change vs veh, WIPF1 / RFU, LARP1B / Fold change vs veh, LARP1B / RFU, RASA1 / Fold change vs veh, RASA1 / RFU, RB1 / Fold change vs veh, RB1 / RFU, PPFIA1 / Fold change vs veh, PPFIA1 / RFU, MAT2A / Fold change vs veh, MAT2A / RFU, CCT5 / Fold change vs veh, CCT5 / RFU, WDR92 / Fold change vs veh, WDR92 / RFU, CUX1 / Fold change vs veh, CUX1 / RFU, TTC7A / Fold change vs veh, TTC7A / RFU, TMEM135 / Fold change vs veh, TMEM135 / RFU, DEPTOR / Fold change vs veh, DEPTOR / RFU, CPM / Fold change vs veh, CPM / RFU, DNAJB6 / Fold change vs veh, DNAJB6 / RFU, CACNA2D3 / Fold change vs veh, CACNA2D3 / RFU, DTX4 / Fold change vs veh, DTX4 / RFU, TFCP2 / Fold change vs veh, TFCP2 / RFU, GMCL1 /// GMCL1P1 / Fold change vs veh, GMCL1 /// GMCL1P1 / RFU, AEBP2 / Fold change vs veh, AEBP2 / RFU, SNHG1 /// SNORD22 /// SNORD25 /// SNORD26 /// SNORD27 /// SNORD28 /// SNORD29 /// SNORD31 / Fold change vs veh, SNHG1 /// SNORD22 /// SNORD25 /// SNORD26 /// SNORD27 /// SNORD28 /// SNORD29 /// SNORD31 / Fold change (Aza/veh), C12orf56 (ProbeSet 11735607_a_at) / Fold change (ACY-1035/veh), C12orf56 (ProbeSet 11735607_a_at) / Fold change (Aza/veh), FGFR1OP (ProbeSet 11751329_s_at) / Fold change (ACY-1035/veh), FGFR1OP (ProbeSet 11751329_s_at) / Fold change (Aza/veh), VPS36 (ProbeSet 11739960_a_at) / Fold change (ACY-1035/veh), VPS36 (ProbeSet 11739960_a_at) / RFU SYPL1 (11715823_x_at) / Fold change /veh SYPL1 (11715823_x_at) / RFU IGFBP7 (11715501_s_at) / Fold change /veh IGFBP7 (11715501_s_at) / RFU REEP3 (11722064_at) / Fold change /veh REEP3 (11722064_at) / RFU IGLL1 (11728026_x_at) / Fold change /veh IGLL1 (11728026_x_at): dose or concentration left out as unconfirmed
Settings: ProbeSet 11731610_x_at; LIST B

Nc1ccc(-c2cccs2)cc1NC(=O)c1ccc2c(c1)cc(C1CC1)n2CCN1CCOCC1 [ACY-1035]
RFU, KIAA1704 /// LOC100996395: 79.91 RFU
